Assay results taken from patent publication US20210277057A1, “AD[…]-OPIATE RECEPTOR PEPTIDE COMPOUNDS” (Cytogel Pharma, LLC, priority 2009, published 2021).
Counter-ions that a name gives are not always drawn.

Experiments:
rat = test: standard rat tail flick assay; type: in vivo; conditions: suspension in 20% PEG
Description: The assay was the standard rat tail flick assay. Test agents were administered intravenously as suspensions in 20% PEG.

kappa receptors = test: binding to kappa receptors relative to mu opiate receptor; conditions: kappa versus mu opiate receptor
delta receptors = test: binding to delta receptors relative to mu opiate receptor; conditions: delta versus mu opiate receptor

For `NC(Cc1ccc(O)cc1)C(=O)NC1CCCCNC(=O)C(Cc2ccccc2)NC(=O)C(Cc2c[nH]c3ccccc23)NC1=O` [CYT-1010 Free Base, H-Tyr-c-[D-Lys-Trp-Phe]], the “Activity % MPE Ave” value (rat; IV dose 2 mg/kg, listed as Free Base, 2 mg/kg) was 77.7% and the “Activity % MPE Ave” value (rat; IV dose 4 mg/kg, listed as Free Base, 4 mg/kg) was 100.0%.

`NC(Cc1ccc(O)cc1)C(=O)NC1CCCCNC(=O)C(Cc2ccccc2)NC(=O)C(Cc2c[nH]c3ccccc23)NC1=O` [CYT-1010 Acetate, H-Tyr-c-[D-Lys-Trp-Phe]] was tested, and the “Activity % MPE Ave” value (rat; IV dose 2 mg/kg, listed as Acetate, 2 mg/kg) was 50.0% and the “Activity % MPE Ave” value (rat; IV dose 4 mg/kg, listed as Acetate, 4 mg/kg) was 83.3%.

For `NC(Cc1ccc(O)cc1)C(=O)NC1CCCCNC(=O)C(Cc2ccccc2)NC(=O)C(Cc2c[nH]c3ccccc23)NC1=O` [CYT-1010 Aspartate, H-Tyr-c-[D-Lys-Trp-Phe]], the “Activity % MPE Ave” value (rat; IV dose 2 mg/kg, listed as Aspartate, 2 mg/kg) was 7.4%.

H-Tyr-Pro-Trp-Phe-NH2 [SEQ ID NO:1] was tested, and the “weaker binding to kappa receptors (selectivity for mu opiate receptor)” value (kappa receptors) was “over 15,000 fold” and the “weaker binding to delta receptors (selectivity for mu opiate receptor)” value (delta receptors) was “over 4000 fold”.

In the case of `NC(Cc1ccc(O)cc1)C(=O)NC1CCCCNC(=O)C(Cc2ccccc2)NC(=O)C(Cc2c[nH]c3ccccc23)NC1=O` [CYT-1010 HCL, H-Tyr-c-[D-Lys-Trp-Phe]], the “Activity % MPE Ave” value (rat; IV dose 4 mg/kg, listed as HCL, 4 mg/kg) is reported as 0.0%.

With `NC(Cc1ccc(O)cc1)C(=O)NC1CCCCNC(=O)C(Cc2ccccc2)NC(=O)C(Cc2c[nH]c3ccccc23)NC1=O` [CYT-1010 TFA, H-Tyr-c-[D-Lys-Trp-Phe]] the “Activity % MPE Ave” value (rat; IV dose 4 mg/kg, listed as TFA, 4 mg/kg) was 25.4% and the “Activity % MPE Ave” value (rat; IV dose 8 mg/kg) was 71.2%.

With `NC(Cc1ccc(O)cc1)C(=O)NC1CCCCNC(=O)C(Cc2ccccc2)NC(=O)C(Cc2c[nH]c3ccccc23)NC1=O` [CYT-1010 Lactate, H-Tyr-c-[D-Lys-Trp-Phe]] the “Activity % MPE Ave” value (rat; IV dose 2 mg/kg, listed as Lactate, 2 mg/kg) was 1.4%.
